From patent publication US5241047A, “Synthetic peptides and mixtures thereof for detecting HIV antibodies” (BioChem Pharma Inc., priority 1990, dated 1993)
Positions of bridges follow the written chain, without caps; N, C: chain ends. Residues, ends and D or L forms follow the SMILES beside them.

Key:
[1] = tested on: HIV-1 antibodies; settings: cited from earlier work
[2] = tested on: HIV-1 antibodies; assay: ELISA with peptide-coated wells, HIV-1 antibody positive samples (diluted plasma pool, seroconversion samples); type: binding, human
Protocol: (§1) A preferred convenient and classical technique for the determination of antibodies against HIV-1 or HIV-2 using a peptide or a peptide mixture of the present invention is an enzyme-linked immunosorbent assay (ELISA). In this assay, for example, a peptide, peptide mixture or combination of the present invention is adsorbed onto, or covalently coupled to, the wells of a microtiter plate. The wells are then treated with the sera or analyte to be tested. After washing, antihuman IgG or antihuman IgM labeled with peroxidase is added to the wells. The determination of the peroxidase is performed with a corresponding substrate, e.g., with o-phenylene diamine. Without departing from the usefulness of the illustrative assay, the peroxidase can be exchanged by another label, e.g., by a radioactive, fluorescence chemiluminescence or infrared emitting label.
(§2) O.D. Values were obtained at 450 nm and the blank values measured with the sample dilution buffer were not subtracted.
(§3) Samples NEIA-2*2, BBI-1-162 to 168, 87B140, 87L139, 87V103 are all negative for HIV antibodies. Sample LSPQ-S9-1 is an early seroconverter (HIV-1). The series labeled CAP-113 to CAP-120 corresponds to a pool of seven HIV-1 positive plasma samples serially diluted with an HIV-negative plasma. CAP-113 is the pool diluted 50-fold with the HIV-negative plasma; CAP-114 is diluted 100-fold; CAP-115 is diluted 200-fold; etc. Similarly, the series labeled CAP-222 to CAP-230 corresponds to a pool of seven HIV-2 confirmed seropositive plasma samples. CAP-222 is diluted by 50 with an HIV-negative plasma; CAP-223 by 100; etc. Before the assay is done, each sample, including the CAP-series, is further diluted by 50 with the sample dilution buffer. In these tests, the cut-off for seropositivity is defined as the sum of the O.D. value for sample NEIA-2*2 plus 0.100.
Each well of the microtiter plate is saturated with 100 μl of a solution containing a peptide or mixture of peptides (5 μg/ml) and left overnight. The wells are emptied and washed twice with a washing buffer (Tris, 0.043M; NaCl, 0.5M; thimerosal, 0.01% w/v; Tween 20, 0.05% v/v; pH 7.4). The wells are then saturated with 0.35 ml of washing buffer for 1 hr. at 37° C. and washed once with the same buffer. Serum samples to be analyzed are diluted with specimen buffer (washing buffer plus casein, 0.05% w/v). The wells are rinsed with washing buffer prior to the addition of the diluted serum sample (0.1 ml). These are left to incubate for 1 hr. at room temperature. The wells are then emptied, washed twice rapidly and then once for two minutes with washing buffer. […] The wells are then emptied and washed twice rapidly with washing buffer and then five times in which the buffer was in contact with the well 2 minutes per washing. The substrate solution (3,3',5,5'-tetramethylbenzidine, 8 mg per ml of DMSO) is diluted with 100 volumes 0.1M citrate-acetate buffer, pH 5.6 containing 0.1% v/v of 30% H2 O2 and added to each well (0.1 ml per well). After 10 minutes the contents of each well is treated with 0.1 ml 2N H2 SO4 and the optical density read at 450 nm. All determinations are done in duplicate. […]

[3] = tested on: HIV-2 antibodies; assay: ELISA with peptide-coated wells, HIV-2 seropositive plasma pool serially diluted; type: binding, human; settings: Test 314
Protocol: as §1, §2, §3
(§4) Each well of the microtiter plate is saturated with 100 μl of a solution containing a peptide or mixture of peptides (5 μg/ml) and left overnight. The wells are emptied and washed twice with a washing buffer (Tris, 0.043M; NaCl, 0.5M; thimerosal, 0.01% w/v; Tween 20, 0.05% v/v; pH 7.4). The wells are then saturated with 0.35 ml of washing buffer for 1 hr. at 37° C. and washed once with the same buffer. Serum samples to be analyzed are diluted with specimen buffer (washing buffer plus casein, 0.05% w/v). The wells are rinsed with washing buffer prior to the addition of the diluted serum sample (0.1 ml). These are left to incubate for 1 hr. at room temperature. The wells are then emptied, washed twice rapidly and then once for two minutes with washing buffer. […] The wells are then emptied and washed twice rapidly with washing buffer and then five times in which the buffer was in contact with the well 2 minutes per washing. The substrate solution (3,3',5,5'-tetramethylbenzidine, 8 mg per ml of DMSO) is diluted with 100 volumes 0.1M citrate-acetate buffer, pH 5.6 containing 0.1% v/v of 30% H2 O2 and added to each well (0.1 ml per well). After 10 minutes the contents of each well is treated with 0.1 ml 2N H2 SO4 and the optical density read at 450 nm. All determinations are done in duplicate.
(§5) Peptide cocktails were prepared by mixing together equal volumes of two peptide solutions each at 10 ug/ml. One cocktail used peptides BCH-87c and BCH-202c and the other cocktail was a mixture of BCH-87ck and BCH-202ck. Each cocktail was used to coat two series of plates as described earlier.

[4] = tested on: HIV antibodies; assay: ELISA with peptide-coated wells, samples negative for HIV antibodies or not described; type: binding, human
Protocol: as §1, §2, §3, §4, §5

SGKLICTTAVPWNAS [short synthetic peptide spanning residues 606 to 620 of gp41 (HIV-1)]
sensitivity ([1]; U.S. Ser. No. 120,027, 6 of 57 confirmed positive not detected): 89%
specificity ([1]; U.S. Ser. No. 120,027): 63/63

CC[C@H](C)[C@H](NC(=O)CNC(=O)[C@H](CC(C)C)NC(=O)[C@H](CC(C)C)NC(=O)[C@H](CCC(N)=O)NC(=O)[C@H](CCC(N)=O)NC(=O)[C@H](CC(=O)O)NC(=O)[C@H](CCCCN)NC(=O)[C@H](CC(C)C)NC(=O)[C@H](Cc1ccc(O)cc1)NC(=O)[C@H](CCCNC(=N)N)NC(=O)[C@H](CCC(=O)O)NC(=O)[C@@H](NC(=O)[C@H](C)NC(=O)[C@H](CC(C)C)NC(=O)[C@@H](NC(=O)[C@H](CCCCN)NC(=O)[C@@H](N)CCCCN)[C@@H](C)CC)C(C)C)C(=O)N[C@@H](Cc1c[nH]c2ccccc12)C(=O)NCC(=O)N[C@H]1CSSC[C@@H](C(=O)N[C@H](C(=O)N[C@H](C(=O)N[C@@H](C)C(=O)N[C@H](C(=O)N2CCC[C@H]2C(=O)N[C@@H](Cc2c[nH]c3ccccc23)C(=O)N[C@@H](CC(N)=O)C(=O)N[C@@H](C)C(=O)N[C@@H](CO)C(=O)O)C(C)C)[C@@H](C)O)[C@@H](C)O)NC(=O)[C@H]([C@@H](C)CC)NC(=O)[C@H](CC(C)C)NC(=O)[C@H](CCCCN)NC(=O)CNC(=O)[C@H](CO)NC1=O [BCH-266] (H-KKILAVERYLKDQQLLGIWGCSGKLICTTAVPWNAS-OH; disulfide 21-27)
O.D. 450 nm ([2]; Test 314, sample CAP-113 (HIV-1 positive plasma pool diluted 50-fold)): > 2.8
O.D. 450 nm ([2]; Test 314, sample CAP-114 (HIV-1 positive pool diluted 100-fold)): > 2.8
O.D. 450 nm ([2]; Test 314, sample CAP-115 (HIV-1 positive pool diluted 200-fold)): > 2.8
O.D. 450 nm ([2]; Test 314, sample CAP-116 (HIV-1 positive pool, serial dilution)): 2.376
O.D. 450 nm ([2]; Test 314, sample CAP-117 (HIV-1 positive pool, serial dilution)): 1.569
O.D. 450 nm ([2]; Test 314, sample CAP-118 (HIV-1 positive pool, serial dilution)): 0.934
O.D. 450 nm ([2]; Test 314, sample CAP-119 (HIV-1 positive pool, serial dilution)): 0.567
O.D. 450 nm ([2]; Test 314, sample CAP-120 (HIV-1 positive pool, serial dilution)): 0.376
O.D. 450 nm ([2]; Test 350, sample CAP-10 (progressively higher dilutions)): > 2.8
O.D. 450 nm ([2]; Test 350, sample CAP-11 (progressively higher dilutions)): > 2.8
O.D. 450 nm ([2]; Test 350, sample CAP-12 (progressively higher dilutions)): > 2.8
O.D. 450 nm ([2]; Test 350, sample CAP-13 (progressively higher dilutions)): 2.021
O.D. 450 nm ([2]; Test 350, sample CAP-14 (progressively higher dilutions)): 1.248
O.D. 450 nm ([2]; Test 350, sample CAP-15 (progressively higher dilutions)): 0.680
O.D. 450 nm ([2]; Test 350, sample CAP-16 (progressively higher dilutions)): 0.366
O.D. 450 nm ([2]; Test 350, sample CAP-17 (progressively higher dilutions)): 0.198
O.D. 450 nm ([2]; Test 350, sample CAP-18 (progressively higher dilutions)): 0.116
O.D. 450 nm ([2]; Test 350, sample CAP-19 (progressively higher dilutions)): 0.056
O.D. 450 nm ([3]; sample CAP-223 (HIV-2 positive pool diluted by 100)): 0.075
O.D. 450 nm ([3]; sample CAP-224 (HIV-2 positive pool, serial dilution)): 0.084
O.D. 450 nm ([3]; sample CAP-225 (HIV-2 positive pool, serial dilution)): 0.135
O.D. 450 nm ([3]; sample CAP-226 (HIV-2 positive pool, serial dilution)): 0.140
O.D. 450 nm ([3]; sample CAP-227 (HIV-2 positive pool, serial dilution)): 0.085
O.D. 450 nm ([3]; sample CAP-228 (HIV-2 positive pool, serial dilution)): 0.091
O.D. 450 nm ([3]; sample CAP-230 (HIV-2 positive pool, serial dilution)): 0.123
O.D. 450 nm ([4]; Test 314, sample BBI-1-162 (negative for HIV antibodies)): 0.028
O.D. 450 nm ([4]; Test 314, sample BBI-1-169 (not described)): 0.138
O.D. 450 nm ([4]; Test 314, sample BBI-1-172 (not described)): 0.030
O.D. 450 nm ([4]; Test 314, sample NEIA-2*2 (negative for HIV antibodies)): 0.069
O.D. 450 nm ([4]; Test 350, sample 2-87-L-139 (negative for HIV antibodies)): 0.147
O.D. 450 nm ([4]; Test 350, sample 2-87-V-103 (negative for HIV antibodies)): 0.020
O.D. 450 nm ([4]; Test 350, sample 89-D-307 (not described)): 0.030
O.D. 450 nm ([4]; Test 350, sample NEIA-2*2 (negative for HIV antibodies)): 0.023

SGKLIC
immunoreactivity with HIV-1 positive sera ([1]; Gnann et al. 1987, 22 HIV-1 positive sera tested): not immunoreactive
